Experimental data published in patent publication US6989270B1, “Using polyamide nucleic acid oligomers to engender a biological response” (Mayo Foundation for Medical Education and Research, priority 1997, dated 2006).

What was measured:
[1] = test system: [125I]neurotensin binding sites (NT receptors); test: [125I]neurotensin binding assay, PAG and hypothalamus homogenates of treated rats; format: in vivo, rat
Experimental: Binding assays were done with homogenates from rat PAG and hypothalamus tissue as described elsewhere (Kanba et al., J. Neurochem. 46:946-952 (1986) and Al-Rodhan N.R.F., Brain Res. 557:227-235 (1991)). Tissue concentrations were 1 mg wet weight per tube in a total volume of 100 μl with a final buffer concentration of 0.05 M Tris-HCl (pH 7.4) containing the following compounds to inhibit degradation of peptides: 0.02% (w/v) bovine serum albumin, 2.8 mg/ml bacitracin, 1.0 mM EDTA, 0.5 mM o-phenanthroline, 10 μg/ml pepstatin, 10 μg/ml leupeptin, 10 μg/ml aprotinin, 5 mM benzamidine, 2 mM phenylmethylsulfonylfluoride, and 50 μM bestatin. For each experiment, 80 μl of a thawed membranal suspension was incubated for 25 minutes at 20° C. in a solution containing 0.2 nM [^125I]neurotensin with a final volume of 100 μl. After incubation, the mixture was rapidly filtered to separate bound from unbound radioligand. Each filter was then dried for 2 minutes, placed on a solid scintillation sheet (Wallac Oy, Turku Finland; cat. no. 1205-441), and measured for radioactivity in a beta-plate scintillation counter (Wallac Oy; model # 1205 beta plate). Non-specific binding of [^125I]neurotensin, defined as the binding in the presence of 1 μM neurotensin (−20% of total binding), was subtracted from the total binding to calculate the specific binding.
The LIGAND program was used to analyze all binding data (Munson P. J. and Rodbard D., Analyt. Biochem. 107:220-239 (1980)). Specifically, this program was used to calculate equilibrium dissociation constants and maximal number of binding sites.
The analysis of PAG tissue in experiment 1 was as follows. Four rats were cannulated and treated on days -4, -2, and 0 with either ACSF only or NTR1-PNA as described above. One day after the final treatment, the PAG region of the rat brain was removed, homogenized, and used in the binding assays. Rats treated with ACSF only were used to derive control values for the percent control disintegrations per minute (dpm) and percent control receptors (fmol/mg wet weight). Thus, the values for ACSF only treated rats were set to 100 percent. One day after the final treatment, the PAG region from NTR1-PNA oligomer treated rats expressed 60-70 percent fewer [^125I]neurotensin binding sites than ACSF only treated rats.
In experiment 2, five rats were untreated and used as controls, two recovered rats were treated with ACSF only, and four rats were treated with NTR1-PNA oligomers. The two rats treated with ACSF only are designated as recovered since both rats previously received a single dose of PNA oligomers intraperitoneally (one received NTR1-PNA oligomers and the other MU1R-PNA oligomers). These rats, however, were not used until five days after the intraperitoneal (i.p.) PNA oligomer treatment. Thus, at the time the binding analysis was performed, these rats were completely normal as determined by the behavioral NT-mediated responses and the MOR-mediated response described above. Again, one day after the final treatment, the PAG region from NTR1-PNA oligomer treated rats expressed fewer [^125I]neurotensin binding sites than both the recovered ACSF only treated rats and untreated control rats. In this experiment, the reduction in binding sites was about 20-30 percent of those expressed by the untreated rats.
NT binding sites from the hypothalamus region of the rat brain were also analyzed. In this experiment, the hypothalamus region of rat brain was removed from the same rats used in experiment 2 to analyze the PAG region (five untreated control rats, two recovered ACSF only treated rats, and four NTR1-PNA oligomer treated rats). The untreated rats were used to derive control values. One day after the final treatment, the hypothalamus region from NTR1-PNA oligomer treated rats expressed 40-50 percent fewer [^125I]neurotensin binding sites than untreated control rats. […]

[2] = test system: neurotensin receptor-1 (NTR1); test: Hot plate test of NT-mediated anti-nociception in PNA-treated rats; format: in vivo, rat
[3] = PAG tissue, Experiment 1, control ACSF only, PAG injections days -4, -2, 0
[4] = PAG tissue, Experiment 2, untreated control

## NTR1-PNA: 12-mer antisense PNA oligomer to rat NTR1 coding region, 5′-CATTGCTCAAAC-3′ (SEQ ID NO: 1) (all peptide nucleic acid (PNA))
[1]; Hypothalamus tissue, untreated control, PNA injected into PAG
  % Control receptors: 51 % Control
[1]; [3]
  % Control dpm's: 41 % Control
  % Control receptors: 32 % Control
[1]; [4]
  % Control dpm's: 81 % Control
  % Control receptors: 67 % Control
[1]; PAG, experiment 1, one day after final treatment
  fewer [125I]neurotensin binding sites than ACSF only treated rats: 60-70%
[1]; PAG, experiment 2, one day after final treatment
  reduction in [125I]neurotensin binding sites vs untreated rats: 20-30%
[1]; excess PNA added in vitro to brain homogenates
  effect of excess PNA added to brain homogenates on the binding assay: did not change these results
[1]; hypothalamus, one day after final treatment
  fewer [125I]neurotensin binding sites than untreated control rats: 40-50%
[2]; after single oral 10 mg/kg
  duration of complete lack of NT responsiveness: at least 48 hours
[2]; intraperitoneal dose-response, one batch of PNA
  ED50 for reducing NT anti-nociception: 2.6 mg/kg
[2]; one day after single i.p. injection of 3 mg/kg
  responsiveness to NT challenge (anti-nociception and hypothermia): unable to respond to NT challenge
[2]; rats given single oral 10 mg/kg, Table III
  NT responsiveness: LOST
[2]; twelve hours after 10 mg/kg by gastric intubation (oral), nine rats
  hypothermic and anti-nociceptive responses to NT: either completely abolished (8/9) or nearly completely abolished (1/9)
